Measured values: PubChem BioAssay AID2060910 (Molecular Pharmacology Branch, DTP, NCI, 2025)
pIC50: −log10 of the molar value. Values belong to the compound of their own block, whether it stands above or below them.

Test system: 242566-281-R-J2-PDC complex spheroid viability
Assay: Anticancer human tumor 242566-281-R-J2-PDC patient-derived pancreatic carcinoma cell line growth inhibition [RAS]
Details: for viability, T/C: stronger effect = lower value
In short: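 Multi-cell-type spheroids: tumor cells plus HUVEC endothelial cells and mesenchymal stem cells. RAS-pathway inhibitors were combined with targeted agents, each dosed in half-log steps down from clinical Cmax, or from 10 microM when Cmax was unknown.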

[1] = curve of first compound, second compound 0.00316 µM
[2] = curve of first compound, second compound 0.01 µM
[3] = curve of first compound, second compound 0.0316 µM
[4] = curve of first compound, second compound 0.1 µM
[5] = curve of first compound, second compound 0.316 µM
[6] = curve of first compound, second compound 1 µM
[7] = second compound 0.00316 µM, first compound 0.0316 µM
[8] = second compound 0.00316 µM, first compound 0.1 µM
[9] = second compound 0.01 µM, first compound 0.0316 µM
[10] = second compound 0.01 µM, first compound 0.1 µM
[11] = second compound 0.0316 µM, first compound 0.0316 µM
[12] = second compound 0.0316 µM, first compound 0.1 µM
[13] = second compound 0.1 µM, first compound 0.0316 µM
[14] = second compound 0.1 µM, first compound 0.1 µM
[15] = second compound 0.316 µM, first compound 0.0316 µM
[16] = second compound 0.316 µM, first compound 0.1 µM
[17] = second compound 1 µM, first compound 0.0316 µM
[18] = second compound 1 µM, first compound 0.1 µM
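Note: spheroids exposed to compound for 7 days before readout.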
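Throughout, for viability, T/C: 100% = DMSO vehicle control wells.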

pIC50 [1]: < 5.00
pIC50 [2]: < 5.00
pIC50 [3]: < 5.00
pIC50 [4]: < 5.00
pIC50 [5]: < 5.00
pIC50 [6]: < 5.00
Structure (SMILES): C[C@@H](NC(=O)c1ncnc(N)c1Cl)c1ncc(C(=O)Nc2cc(C(F)(F)F)c(Cl)cn2)s1 + C=CC(=O)N1CCN(c2nc(OCC3CCCN3C)nc3c(F)c(-c4nc(N)cc(C)c4C(F)(F)F)c(Cl)cc23)C(C)C1
viability, T/C [7]: 111%
viability, T/C [8]: 142%
viability, T/C (second compound 0.00316 µM, first compound 0.316 µM): 111%
viability, T/C (second compound 0.00316 µM, first compound 1 µM): 106%
viability, T/C (second compound 0.00316 µM, first compound 3.16 µM): 110%
viability, T/C (second compound 0.00316 µM, first compound 10 µM): 126%
viability, T/C [9]: 112%
viability, T/C [10]: 148%
viability, T/C (second compound 0.01 µM, first compound 0.316 µM): 113%
viability, T/C (second compound 0.01 µM, first compound 1 µM): 105%
viability, T/C (second compound 0.01 µM, first compound 3.16 µM): 105%
viability, T/C (second compound 0.01 µM, first compound 10 µM): 122%
viability, T/C [11]: 125%
viability, T/C [12]: 124%
viability, T/C (second compound 0.0316 µM, first compound 0.316 µM): 115%
viability, T/C (second compound 0.0316 µM, first compound 1 µM): 123%
viability, T/C (second compound 0.0316 µM, first compound 3.16 µM): 97.1%
viability, T/C (second compound 0.0316 µM, first compound 10 µM): 118%
viability, T/C [13]: 122%
viability, T/C [14]: 153%
viability, T/C (second compound 0.1 µM, first compound 0.316 µM): 107%
viability, T/C (second compound 0.1 µM, first compound 1 µM): 113%
viability, T/C (second compound 0.1 µM, first compound 3.16 µM): 106%
viability, T/C (second compound 0.1 µM, first compound 10 µM): 109%
viability, T/C [15]: 107%
viability, T/C [16]: 124%
viability, T/C (second compound 0.316 µM, first compound 0.316 µM): 122%
viability, T/C (second compound 0.316 µM, first compound 1 µM): 112%
viability, T/C (second compound 0.316 µM, first compound 3.16 µM): 110%
viability, T/C (second compound 0.316 µM, first compound 10 µM): 124%
viability, T/C [17]: 111%
viability, T/C [18]: 124%
viability, T/C (second compound 1 µM, first compound 0.316 µM): 119%
viability, T/C (second compound 1 µM, first compound 1 µM): 103%
viability, T/C (second compound 1 µM, first compound 3.16 µM): 117%
viability, T/C (second compound 1 µM, first compound 10 µM): 106%

pIC50 (compound alone, run of 07/15/2024): < 6.00
pIC50 (curve of compound): < 6.00
Structure (SMILES): C=CC(=O)N1CCN(c2nc(OCC3CCCN3C)nc3c(F)c(-c4nc(N)cc(C)c4C(F)(F)F)c(Cl)cc23)C(C)C1 (stereo unspecified)
viability, T/C (compound 0.00316 µM): 102% [middle of 12 runs]
viability, T/C (compound 0.0316 µM): 99.2% [middle of 12 runs]
viability, T/C (compound 0.1 µM): 100% [middle of 12 runs]

pIC50 (curve of first compound, second compound 0.000949 µM): < 5.00
pIC50 (curve of first compound, second compound 0.003 µM): < 5.00
pIC50 (curve of first compound, second compound 0.00949 µM): < 5.00
pIC50 (curve of first compound, second compound 0.03 µM): < 5.00
pIC50 (curve of first compound, second compound 0.0949 µM): < 5.00
pIC50 (curve of first compound, second compound 0.3 µM): < 5.00
Structure (SMILES): CC(C)NCC(C(=O)N1CCN(c2ncnc3c2C(C)CC3O)CC1)c1ccc(Cl)cc1 (stereo unspecified) + CCn1c(-c2cccnc2C(C)OC)c2c3cc(ccc31)N1CCOC(CC(NC(=O)C(C(C)C)N(C)C(=O)C3(F)CCN(C(=O)C#CC(C)(C)N(C)C)CC3)C(=O)N3CCCC(N3)C(=O)OCC(C)(C)C2)C1
viability, T/C (second compound 0.000949 µM, first compound 0.0316 µM): 92%
viability, T/C (second compound 0.000949 µM, first compound 0.1 µM): 98.4%
viability, T/C (second compound 0.000949 µM, first compound 0.316 µM): 84.9%
viability, T/C (second compound 0.000949 µM, first compound 1 µM): 92.2%
viability, T/C (second compound 0.000949 µM, first compound 3.16 µM): 96.8%
viability, T/C (second compound 0.000949 µM, first compound 10 µM): 56.7%
viability, T/C (second compound 0.003 µM, first compound 0.0316 µM): 111%
viability, T/C (second compound 0.003 µM, first compound 0.1 µM): 73.6%
viability, T/C (second compound 0.003 µM, first compound 0.316 µM): 95.2%
viability, T/C (second compound 0.003 µM, first compound 1 µM): 81.6%
viability, T/C (second compound 0.003 µM, first compound 3.16 µM): 84.9%
viability, T/C (second compound 0.003 µM, first compound 10 µM): 55.5%
viability, T/C (second compound 0.00949 µM, first compound 0.0316 µM): 109%
viability, T/C (second compound 0.00949 µM, first compound 0.1 µM): 70.8%
viability, T/C (second compound 0.00949 µM, first compound 0.316 µM): 97.5%
viability, T/C (second compound 0.00949 µM, first compound 1 µM): 79.2%
viability, T/C (second compound 0.00949 µM, first compound 3.16 µM): 74.1%
viability, T/C (second compound 0.00949 µM, first compound 10 µM): 56.4%
viability, T/C (second compound 0.03 µM, first compound 0.0316 µM): 96%
viability, T/C (second compound 0.03 µM, first compound 0.1 µM): 91.2%
viability, T/C (second compound 0.03 µM, first compound 0.316 µM): 93.6%
viability, T/C (second compound 0.03 µM, first compound 1 µM): 79.2%
viability, T/C (second compound 0.03 µM, first compound 3.16 µM): 69.8%
viability, T/C (second compound 0.03 µM, first compound 10 µM): 72.7%
viability, T/C (second compound 0.0949 µM, first compound 0.0316 µM): 88.9%
viability, T/C (second compound 0.0949 µM, first compound 0.1 µM): 87.5%
viability, T/C (second compound 0.0949 µM, first compound 0.316 µM): 104%
viability, T/C (second compound 0.0949 µM, first compound 1 µM): 97.7%
viability, T/C (second compound 0.0949 µM, first compound 3.16 µM): 65.9%
viability, T/C (second compound 0.0949 µM, first compound 10 µM): 59.9%
viability, T/C (second compound 0.3 µM, first compound 0.0316 µM): 85.8%
viability, T/C (second compound 0.3 µM, first compound 0.1 µM): 88.7%
viability, T/C (second compound 0.3 µM, first compound 0.316 µM): 85.4%
viability, T/C (second compound 0.3 µM, first compound 1 µM): 74%
viability, T/C (second compound 0.3 µM, first compound 3.16 µM): 62.3%
viability, T/C (second compound 0.3 µM, first compound 10 µM): 52.3%

pIC50 [1]: < 7.00
pIC50 [2]: < 7.00
pIC50 [3]: < 7.00
pIC50 [4]: < 7.00
pIC50 [5]: < 7.00
pIC50 [6]: < 7.00
Structure (SMILES): CC(C)n1nc(-c2ccc3oc(N)nc3c2)c2c(N)ncnc21 + C=CC(=O)N1CCN(c2nc(OCC3CCCN3C)nc3c(F)c(-c4nc(N)cc(C)c4C(F)(F)F)c(Cl)cc23)C(C)C1
viability, T/C (second compound 0.00316 µM, first compound 0.000316 µM): 93.1%
viability, T/C (second compound 0.00316 µM, first compound 0.001 µM): 154%
viability, T/C (second compound 0.00316 µM, first compound 0.00316 µM): 91.4%
viability, T/C (second compound 0.00316 µM, first compound 0.01 µM): 78.9%
viability, T/C [7]: 58.5%
viability, T/C [8]: 53.8%
viability, T/C (second compound 0.01 µM, first compound 0.000316 µM): 111%
viability, T/C (second compound 0.01 µM, first compound 0.001 µM): 150%
viability, T/C (second compound 0.01 µM, first compound 0.00316 µM): 94.9%
viability, T/C (second compound 0.01 µM, first compound 0.01 µM): 72.7%
viability, T/C [9]: 55.5%
viability, T/C [10]: 53.6%
viability, T/C (second compound 0.0316 µM, first compound 0.000316 µM): 101%
viability, T/C (second compound 0.0316 µM, first compound 0.001 µM): 138%
viability, T/C (second compound 0.0316 µM, first compound 0.00316 µM): 83.4%
viability, T/C (second compound 0.0316 µM, first compound 0.01 µM): 79.2%
viability, T/C [11]: 67.1%
viability, T/C [12]: 54.6%
viability, T/C (second compound 0.1 µM, first compound 0.000316 µM): 98.5%
viability, T/C (second compound 0.1 µM, first compound 0.001 µM): 111%
viability, T/C (second compound 0.1 µM, first compound 0.00316 µM): 89.9%
viability, T/C (second compound 0.1 µM, first compound 0.01 µM): 84.3%
viability, T/C [13]: 62%
viability, T/C [14]: 55.7%
viability, T/C (second compound 0.316 µM, first compound 0.000316 µM): 109%
viability, T/C (second compound 0.316 µM, first compound 0.001 µM): 107%
viability, T/C (second compound 0.316 µM, first compound 0.00316 µM): 107%
viability, T/C (second compound 0.316 µM, first compound 0.01 µM): 81.5%
viability, T/C [15]: 69.5%
viability, T/C [16]: 55.3%
viability, T/C (second compound 1 µM, first compound 0.000316 µM): 109%
viability, T/C (second compound 1 µM, first compound 0.001 µM): 140%
viability, T/C (second compound 1 µM, first compound 0.00316 µM): 86.4%
viability, T/C (second compound 1 µM, first compound 0.01 µM): 88.3%
viability, T/C [17]: 75.2%
viability, T/C [18]: 55.7%
